Laboratory results reported in US20250171495A1, “MUTLI-TARGETED SERINE PROTEASE INHIBITORS FOR TREATMENT OF CANCER AND VIRAL INFECTION” (Washington University, priority 2023, published 2025).

How the values were obtained:
Type in all cases: biochemical
[1] = molecular target: T1, matriptase (Homo sapiens, UniProt Q9Y5Y6); test: HyCoSuL P4-P2 substrate specificity screening, matriptase; settings: for P2 Position Substrate Activity for matriptase (percent substrate cleavage/proteolysis): residue fixed at P2 position; for P3 Position Various Amino Acids Substrate Activity, matriptase (percent substrate cleavage/proteolysis): residue fixed at P3 position of substrate library; for P3 Position Substrate Activity for matriptase (percent substrate cleavage/proteolysis): residue fixed at P3 position; for P4 Position Various Amino Acids Substrate Activity, matriptase (percent substrate proteolysis/cleavage): residue fixed at P4 position of substrate library
T1 sequence (Q9Y5Y6 1-855): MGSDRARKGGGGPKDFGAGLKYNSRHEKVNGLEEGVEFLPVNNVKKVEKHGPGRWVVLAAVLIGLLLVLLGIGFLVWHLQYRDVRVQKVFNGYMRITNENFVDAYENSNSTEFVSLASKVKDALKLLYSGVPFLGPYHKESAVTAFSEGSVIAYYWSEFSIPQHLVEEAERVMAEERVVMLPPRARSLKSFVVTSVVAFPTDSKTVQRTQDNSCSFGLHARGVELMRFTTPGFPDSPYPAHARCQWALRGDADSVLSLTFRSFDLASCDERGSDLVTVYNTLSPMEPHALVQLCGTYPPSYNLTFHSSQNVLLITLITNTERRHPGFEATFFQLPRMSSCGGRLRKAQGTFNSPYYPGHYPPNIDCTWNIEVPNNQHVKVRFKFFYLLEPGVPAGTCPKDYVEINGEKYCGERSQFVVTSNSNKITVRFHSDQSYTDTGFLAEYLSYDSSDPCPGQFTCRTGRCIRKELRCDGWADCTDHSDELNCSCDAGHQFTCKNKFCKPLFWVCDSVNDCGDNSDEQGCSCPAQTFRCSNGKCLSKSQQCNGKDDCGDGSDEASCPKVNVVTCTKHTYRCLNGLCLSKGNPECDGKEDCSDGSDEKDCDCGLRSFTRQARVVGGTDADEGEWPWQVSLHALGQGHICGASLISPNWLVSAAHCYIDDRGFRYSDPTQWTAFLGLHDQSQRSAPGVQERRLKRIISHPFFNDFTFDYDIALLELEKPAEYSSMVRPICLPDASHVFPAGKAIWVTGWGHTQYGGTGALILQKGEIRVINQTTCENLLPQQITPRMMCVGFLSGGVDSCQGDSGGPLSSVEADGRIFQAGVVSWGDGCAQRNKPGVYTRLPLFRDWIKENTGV

[2] = molecular target: TMPRSS2 (Homo sapiens, UniProt O15393); test: PS-SCL / HyCoSuL substrate specificity screening, TMPRSS2; settings: for P2 Position Substrate Activity for TMPRSS2 (percent substrate cleavage/proteolysis): residue fixed at P2 position of substrate library; for P3 Position Substrate Activity for TMPRSS2 (percent substrate cleavage/proteolysis) / P3 Position Various Amino Acids Substrate Activity, TMPRSS2 (percent substrate cleavage/proteolysis): residue fixed at P3 position of substrate library
[3] = molecular target: T2, hepsin (Homo sapiens, UniProt P05981); test: HyCoSuL P4-P2 substrate specificity screening, hepsin; settings: for P2 Position Substrate Activity for hepsin (percent substrate cleavage/proteolysis): residue fixed at P2 position; for P3 Position Substrate Activity for hepsin (percent substrate cleavage/proteolysis): residue fixed at P3 position; for P3 Position Various Amino Acids Substrate Activity, hepsin (percent substrate cleavage/proteolysis): residue fixed at P3 position of substrate library; for P4 Position Various Amino Acids Substrate Activity, hepsin (percent substrate proteolysis/cleavage): residue fixed at P4 position of substrate library
T2 construct: purchased R&D Systems 4776-SE-010

[4] = molecular target: T3, HGFA (Homo sapiens, UniProt Q04756); test: HyCoSuL P4-P2 substrate specificity screening, HGFA; settings: for P2 Position Substrate Activity for HGFA (percent substrate cleavage/proteolysis): residue fixed at P2 position; for P3 Position Substrate Activity for HGFA (percent substrate cleavage/proteolysis): residue fixed at P3 position; for P3 Position Various Amino Acids Substrate Activity, HGFA (percent substrate cleavage/proteolysis): residue fixed at P3 position of substrate library; for P4 Position Various Amino Acids Substrate Activity, HGFA (percent substrate proteolysis/cleavage): residue fixed at P4 position of substrate library
T3 sequence (Q04756 373-655): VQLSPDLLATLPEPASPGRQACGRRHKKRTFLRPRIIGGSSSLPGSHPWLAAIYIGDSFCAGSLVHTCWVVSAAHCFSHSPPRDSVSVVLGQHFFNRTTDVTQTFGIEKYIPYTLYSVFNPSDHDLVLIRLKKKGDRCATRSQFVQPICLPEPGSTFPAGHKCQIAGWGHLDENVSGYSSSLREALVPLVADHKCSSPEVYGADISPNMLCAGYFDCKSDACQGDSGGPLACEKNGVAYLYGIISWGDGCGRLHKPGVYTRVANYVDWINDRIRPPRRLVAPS

[5] = P1-Arg HyCoSuL, 100 μM, best recognized amino acid set to 100%
[6] = residue fixed at P4 position, P1-Arg HyCoSuL, 100 μM, best recognized amino acid set to 100%
[7] = best recognized amino acid set to 100%
[8] = residue fixed at P4 position of substrate library

Sequence of TMPRSS2 (O15393 whole entry): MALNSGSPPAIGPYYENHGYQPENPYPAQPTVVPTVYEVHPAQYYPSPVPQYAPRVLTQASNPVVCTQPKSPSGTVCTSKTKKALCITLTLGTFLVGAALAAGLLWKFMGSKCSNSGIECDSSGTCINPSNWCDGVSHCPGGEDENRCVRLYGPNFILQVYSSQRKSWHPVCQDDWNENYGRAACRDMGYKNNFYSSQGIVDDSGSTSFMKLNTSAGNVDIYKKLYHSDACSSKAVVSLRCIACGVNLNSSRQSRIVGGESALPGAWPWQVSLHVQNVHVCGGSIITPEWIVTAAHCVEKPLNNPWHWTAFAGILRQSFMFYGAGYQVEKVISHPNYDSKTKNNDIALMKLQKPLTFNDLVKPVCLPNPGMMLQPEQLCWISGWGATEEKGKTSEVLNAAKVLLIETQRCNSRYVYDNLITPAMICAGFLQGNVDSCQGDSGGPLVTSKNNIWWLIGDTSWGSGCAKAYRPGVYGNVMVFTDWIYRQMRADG
T2 sequence (P05981 163-417 limits assumed): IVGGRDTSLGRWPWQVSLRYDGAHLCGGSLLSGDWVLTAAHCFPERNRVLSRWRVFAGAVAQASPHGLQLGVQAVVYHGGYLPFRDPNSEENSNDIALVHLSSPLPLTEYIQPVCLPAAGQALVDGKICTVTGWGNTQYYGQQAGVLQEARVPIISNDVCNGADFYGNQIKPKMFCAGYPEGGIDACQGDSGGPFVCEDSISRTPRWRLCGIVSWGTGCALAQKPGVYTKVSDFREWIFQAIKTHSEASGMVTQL
T2 sequence (P05981 1-162 partner limits assumed): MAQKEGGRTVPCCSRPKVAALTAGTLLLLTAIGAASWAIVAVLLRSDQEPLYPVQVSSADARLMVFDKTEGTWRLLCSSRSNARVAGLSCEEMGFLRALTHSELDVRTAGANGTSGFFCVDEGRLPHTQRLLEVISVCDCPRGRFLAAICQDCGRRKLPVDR

## D-Arg
[1]; [5]
  P2 Position Substrate Activity for matriptase (percent substrate cleavage/proteolysis): 0%
  P3 Position Substrate Activity for matriptase (percent substrate cleavage/proteolysis): 7.82%
[1]
  P3 Position Various Amino Acids Substrate Activity, matriptase (percent substrate cleavage/proteolysis): 8%
  P4 Position Various Amino Acids Substrate Activity, matriptase (percent substrate proteolysis/cleavage): 18%
[1]; [6]
  P4 Position Substrate Activity for matriptase (percent substrate cleavage/proteolysis): 17.66%
[2]; [7]
  P2 Position Substrate Activity for TMPRSS2 (percent substrate cleavage/proteolysis): 0.00%
  P3 Position Substrate Activity for TMPRSS2 (percent substrate cleavage/proteolysis): 0.00%
[2]; residue fixed at P4 position of substrate library, best recognized amino acid set to 100%
  P4 Position Substrate Activity for TMPRSS2 (percent substrate cleavage/proteolysis): 24.43%
[3]; [5]
  P2 Position Substrate Activity for hepsin (percent substrate cleavage/proteolysis): 0.00%
  P3 Position Substrate Activity for hepsin (percent substrate cleavage/proteolysis): 66.08%
[3]; [6]
  P4 Position Substrate Activity for hepsin (percent substrate cleavage/proteolysis): 44.37%
[4]; [5]
  P2 Position Substrate Activity for HGFA (percent substrate cleavage/proteolysis): 0.00%
  P3 Position Substrate Activity for HGFA (percent substrate cleavage/proteolysis): 29.10%
[4]; [6]
  P4 Position Substrate Activity for HGFA (percent substrate cleavage/proteolysis): 23.20%

## D-Asn
[1]; [5]
  P2 Position Substrate Activity for matriptase (percent substrate cleavage/proteolysis): 0%
[1]
  P3 Position Various Amino Acids Substrate Activity, matriptase (percent substrate cleavage/proteolysis): 2%
  P4 Position Various Amino Acids Substrate Activity, matriptase (percent substrate proteolysis/cleavage): 7%
[2]; [7]
  P2 Position Substrate Activity for TMPRSS2 (percent substrate cleavage/proteolysis): 0.00%
[2]
  P3 Position Various Amino Acids Substrate Activity, TMPRSS2 (percent substrate cleavage/proteolysis): 0.00%
[2]; [8]
  P4 Position Various Amino Acids Substrate Activity, TMPRSS2 (percent substrate proteolysis/cleavage): 19.65%
[3]; [5]
  P2 Position Substrate Activity for hepsin (percent substrate cleavage/proteolysis): 0.00%
[3]
  P3 Position Various Amino Acids Substrate Activity, hepsin (percent substrate cleavage/proteolysis): 38.75%
  P4 Position Various Amino Acids Substrate Activity, hepsin (percent substrate proteolysis/cleavage): 18.48%
[4]; [5]
  P2 Position Substrate Activity for HGFA (percent substrate cleavage/proteolysis): 0.00%
[4]
  P3 Position Various Amino Acids Substrate Activity, HGFA (percent substrate cleavage/proteolysis): 15.16%
  P4 Position Various Amino Acids Substrate Activity, HGFA (percent substrate proteolysis/cleavage): 7.38%

## D-Asp
[1]; [5]
  P2 Position Substrate Activity for matriptase (percent substrate cleavage/proteolysis): 0%
[1]
  P3 Position Various Amino Acids Substrate Activity, matriptase (percent substrate cleavage/proteolysis): 0%
  P4 Position Various Amino Acids Substrate Activity, matriptase (percent substrate proteolysis/cleavage): 1%
[2]; [7]
  P2 Position Substrate Activity for TMPRSS2 (percent substrate cleavage/proteolysis): 0.00%
[2]
  P3 Position Various Amino Acids Substrate Activity, TMPRSS2 (percent substrate cleavage/proteolysis): 20.28%
[2]; [8]
  P4 Position Various Amino Acids Substrate Activity, TMPRSS2 (percent substrate proteolysis/cleavage): 18.22%
[3]; [5]
  P2 Position Substrate Activity for hepsin (percent substrate cleavage/proteolysis): 0.00%
[3]
  P3 Position Various Amino Acids Substrate Activity, hepsin (percent substrate cleavage/proteolysis): 17.18%
  P4 Position Various Amino Acids Substrate Activity, hepsin (percent substrate proteolysis/cleavage): 1.98%
[4]; [5]
  P2 Position Substrate Activity for HGFA (percent substrate cleavage/proteolysis): 0.00%
[4]
  P3 Position Various Amino Acids Substrate Activity, HGFA (percent substrate cleavage/proteolysis): 5.37%
  P4 Position Various Amino Acids Substrate Activity, HGFA (percent substrate proteolysis/cleavage): 2.25%

## D-Gln
[1]; [5]
  P2 Position Substrate Activity for matriptase (percent substrate cleavage/proteolysis): 0%
  P3 Position Substrate Activity for matriptase (percent substrate cleavage/proteolysis): 7.43%
[1]
  P3 Position Various Amino Acids Substrate Activity, matriptase (percent substrate cleavage/proteolysis): 7%
  P4 Position Various Amino Acids Substrate Activity, matriptase (percent substrate proteolysis/cleavage): 7%
[2]; [7]
  P2 Position Substrate Activity for TMPRSS2 (percent substrate cleavage/proteolysis): 0.00%
  P3 Position Substrate Activity for TMPRSS2 (percent substrate cleavage/proteolysis): 10.18%
[2]; [8]
  P4 Position Various Amino Acids Substrate Activity, TMPRSS2 (percent substrate proteolysis/cleavage): 20.76%
[3]; [5]
  P2 Position Substrate Activity for hepsin (percent substrate cleavage/proteolysis): 0.00%
  P3 Position Substrate Activity for hepsin (percent substrate cleavage/proteolysis): 97.80%
[3]
  P4 Position Various Amino Acids Substrate Activity, hepsin (percent substrate proteolysis/cleavage): 20.13%
[4]; [5]
  P2 Position Substrate Activity for HGFA (percent substrate cleavage/proteolysis): 0.00%
  P3 Position Substrate Activity for HGFA (percent substrate cleavage/proteolysis): 13.84%
[4]
  P4 Position Various Amino Acids Substrate Activity, HGFA (percent substrate proteolysis/cleavage): 8.03%

## D-Glu
[1]; [5]
  P2 Position Substrate Activity for matriptase (percent substrate cleavage/proteolysis): 0%
[1]
  P3 Position Various Amino Acids Substrate Activity, matriptase (percent substrate cleavage/proteolysis): 2%
  P4 Position Various Amino Acids Substrate Activity, matriptase (percent substrate proteolysis/cleavage): 1%
[2]; [7]
  P2 Position Substrate Activity for TMPRSS2 (percent substrate cleavage/proteolysis): 0.00%
[2]
  P3 Position Various Amino Acids Substrate Activity, TMPRSS2 (percent substrate cleavage/proteolysis): 12.50%
[2]; [8]
  P4 Position Various Amino Acids Substrate Activity, TMPRSS2 (percent substrate proteolysis/cleavage): 23.68%
[3]; [5]
  P2 Position Substrate Activity for hepsin (percent substrate cleavage/proteolysis): 0.00%
[3]
  P3 Position Various Amino Acids Substrate Activity, hepsin (percent substrate cleavage/proteolysis): 34.55%
  P4 Position Various Amino Acids Substrate Activity, hepsin (percent substrate proteolysis/cleavage): 2.98%
[4]; [5]
  P2 Position Substrate Activity for HGFA (percent substrate cleavage/proteolysis): 0.00%
[4]
  P3 Position Various Amino Acids Substrate Activity, HGFA (percent substrate cleavage/proteolysis): 3.61%
  P4 Position Various Amino Acids Substrate Activity, HGFA (percent substrate proteolysis/cleavage): 2.62%

## D-His
[1]; [5]
  P2 Position Substrate Activity for matriptase (percent substrate cleavage/proteolysis): 0%
[1]
  P3 Position Various Amino Acids Substrate Activity, matriptase (percent substrate cleavage/proteolysis): 3%
  P4 Position Various Amino Acids Substrate Activity, matriptase (percent substrate proteolysis/cleavage): 7%
[2]; [7]
  P2 Position Substrate Activity for TMPRSS2 (percent substrate cleavage/proteolysis): 0.00%
[2]
  P3 Position Various Amino Acids Substrate Activity, TMPRSS2 (percent substrate cleavage/proteolysis): 6.35%
[2]; [8]
  P4 Position Various Amino Acids Substrate Activity, TMPRSS2 (percent substrate proteolysis/cleavage): 24.51%
[3]; [5]
  P2 Position Substrate Activity for hepsin (percent substrate cleavage/proteolysis): 0.00%
[3]
  P3 Position Various Amino Acids Substrate Activity, hepsin (percent substrate cleavage/proteolysis): 40.09%
  P4 Position Various Amino Acids Substrate Activity, hepsin (percent substrate proteolysis/cleavage): 19.33%
[4]; [5]
  P2 Position Substrate Activity for HGFA (percent substrate cleavage/proteolysis): 0.00%
[4]
  P3 Position Various Amino Acids Substrate Activity, HGFA (percent substrate cleavage/proteolysis): 11.09%
  P4 Position Various Amino Acids Substrate Activity, HGFA (percent substrate proteolysis/cleavage): 7.79%

## D-Leu
[1]; [5]
  P2 Position Substrate Activity for matriptase (percent substrate cleavage/proteolysis): 0%
[1]
  P3 Position Various Amino Acids Substrate Activity, matriptase (percent substrate cleavage/proteolysis): 4%
  P4 Position Various Amino Acids Substrate Activity, matriptase (percent substrate proteolysis/cleavage): 9%
[2]; [7]
  P2 Position Substrate Activity for TMPRSS2 (percent substrate cleavage/proteolysis): 0.00%
[2]
  P3 Position Various Amino Acids Substrate Activity, TMPRSS2 (percent substrate cleavage/proteolysis): 0.00%
[2]; [8]
  P4 Position Various Amino Acids Substrate Activity, TMPRSS2 (percent substrate proteolysis/cleavage): 28.04%
[3]; [5]
  P2 Position Substrate Activity for hepsin (percent substrate cleavage/proteolysis): 0.00%
[3]
  P3 Position Various Amino Acids Substrate Activity, hepsin (percent substrate cleavage/proteolysis): 20.14%
  P4 Position Various Amino Acids Substrate Activity, hepsin (percent substrate proteolysis/cleavage): 24.76%
[4]; [5]
  P2 Position Substrate Activity for HGFA (percent substrate cleavage/proteolysis): 0.00%
[4]
  P3 Position Various Amino Acids Substrate Activity, HGFA (percent substrate cleavage/proteolysis): 7.08%
  P4 Position Various Amino Acids Substrate Activity, HGFA (percent substrate proteolysis/cleavage): 10.56%
